Converted amounts (≈) assume the structure as drawn.

The experiment relates to Mycobacterium tuberculosis H37Rv. The experiment can be described thus: Mycobacterium tuberculosis H37Rv Inhibition Assay (Whole Cell Assay). The format is cell-based. Conditions: ATCC 25618 / H37Rv, H37Rv strain (ATCC25618), Middlebrook 7H9, six days at 37° C., resazurin fluorescence after 48 hours.
For orientation: MIC means the least concentration at which growth counts as inhibited. On to `Cc1ccc([C@H]2C[C@@H](C(F)(F)F)n3ncc(C(=O)NCc4ccc5c(c4)OCCO5)c3N2)cc1` (relative stereo) [Example 50, Cis-N-((2,3-dihydrobenzo[b][1,4]dioxin-6-yl)methyl)-5-(p-tolyl)-7-(trifluoromethyl)-4,5,6,7-tetrahydropyrazolo[1,5-a]pyrimidine-3-carboxamide], for which the MIC is more than 2 µM.
For the molecule `CCc1ccc([C@H]2C[C@@H](C(F)(F)F)n3ncc(C(=O)NCc4ccc(OC)nc4)c3N2)cc1` (relative stereo) [Example 74, Cis5-(4-ethylphenyl)-N-((6-methoxypyridin-3-yl)methyl)-7-(trifluoromethyl)-4,5,6,7-tetrahydropyrazolo[1,5-a]pyrimidine-3-carboxamide], the MIC lay in the range of 1 to 2 µM (≈ 0.459 to 0.919 µg/mL).
`Cc1ccc(CNC(=O)c2cnn3c2N[C@@H](c2ccc(Br)cc2)C[C@H]3C(F)(F)F)cc1` (relative stereo) [Example 21, Cis-5-(4-bromophenyl)-N-(4-methylbenzyl)-7-(trifluoromethyl)-4,5,6,7-tetrahydropyrazolo[1,5-a]pyrimidine-3-carboxamide] came in with an MIC not above 1 µM.
`Cc1ccc([C@H]2C[C@@H](C(F)(F)F)n3ncc(C(=O)NCc4ccc(F)c(F)c4)c3N2)cc1` (relative stereo) [Example 31, Cis-N-(3,4-difluorobenzyl)-5-(p-tolyl)-7-(trifluoromethyl)-4,5,6,7-tetrahydropyrazolo[1,5-a]pyrimidine-3-carboxamide] had an MIC not above 1 µM.
Take `CCc1ccc([C@H]2C[C@@H](C(F)(F)F)n3ncc(C(=O)NCc4ccc(F)cn4)c3N2)cc1` (relative stereo) [Example 69, Cis-5-(4-ethylphenyl)-N-((5-fluoropyridin-2-yl)methyl)-7-(trifluoromethyl)-4,5,6,7-tetrahydropyrazolo[1,5-a]pyrimidine-3-carboxamide]: the MIC is not above 1 µM.
Regarding `Cc1ccc(C2CC(C(F)(F)F)n3ncc(C(=O)NCc4ccccc4Cl)c3N2)cc1` (centres unmarked) [Example 52, N-(2-chlorobenzyl)-5-(p-tolyl)-7-(trifluoromethyl)-4,5,6,7-tetrahydropyrazolo[1,5-a]pyrimidine-3-carboxamide], the MIC is more than 2 µM.
`CCc1ccc([C@H]2C[C@@H](C)n3ncc(C(=O)NCc4ccc(OC)cc4)c3N2)cc1` (relative stereo) [Example 23, Cis-5-(4-ethylphenyl)-7-methyl-N-{[4-(methyloxy)phenyl]methyl}-4,5,6,7-tetrahydropyrazolo[1,5-a]pyrimidine-3-carboxamide] came in with an MIC not above 1 µM.
For the molecule `CCc1ccc([C@H]2C[C@@H](C(F)(F)F)n3ncc(C(=O)NCc4ccccc4Cl)c3N2)cc1` (relative stereo) [Example 73, Cis-N-(2-chlorobenzyl)-5-(4-ethylphenyl)-7-(trifluoromethyl)-4,5,6,7-tetrahydropyrazolo[1,5-a]pyrimidine-3-carboxamide], the minimum inhibitory concentration (MIC) fell in the range of 1 to 2 µM (≈ 0.463 to 0.926 µg/mL).
For `CCc1ccc([C@H]2C[C@@H](C(F)(F)F)n3ncc(C(=O)NCc4ccccc4)c3N2)cc1` (relative stereo) [Example 15, Cis-N-benzyl-5-(4-ethylphenyl)-7-(trifluoromethyl)-4,5,6,7-tetrahydropyrazolo[1,5-a]pyrimidine-3-carboxamide], the MIC was not above 1 µM.
The figure for `CCc1ccc([C@H]2C[C@@H](C(F)(F)F)n3ncc(C(=O)NCc4ccc(C)c(Cl)c4)c3N2)cc1` (relative stereo) [Example 9, Cis-N-(3-chloro-4-methylbenzyl)-5-(4-ethylphenyl)-7-(trifluoromethyl)-4,5,6,7-tetrahydropyrazolo[1,5-a]pyrimidine-3-carboxamide] is not above 1 µM.
As for `CCc1ccc([C@H]2C[C@@H](C(F)(F)F)n3ncc(C(=O)NCc4ccc(OC)cc4)c3N2)cc1` (single isomer, unassigned) [Example 1a], the MIC was not above 1 µM.
On to `CCc1ccc([C@H]2C[C@@H](C(F)(F)F)n3ncc(C(=O)NCc4ccc(N(C)C)cc4)c3N2)cc1` (relative stereo) [Example 11, Cis-N-(4-(dimethylamino)benzyl)-5-(4-ethylphenyl)-7-(trifluoromethyl)-4,5,6,7-tetrahydropyrazolo[1,5-a]pyrimidine-3-carboxamide], for which the minimum inhibitory concentration (MIC) is 1 to 2 µM (≈ 0.472 to 0.943 µg/mL).
In the case of `CCc1ccc([C@H]2C[C@@H](C(F)(F)F)n3ncc(C(=O)NCc4ccc(F)c(F)c4)c3N2)cc1` (relative stereo) [Example 16, Cis-N-[(3,4-difluorophenyl)methyl]-5-(4-ethylphenyl)-7-(trifluoromethyl)-4,5,6,7-tetrahydropyrazolo[1,5-a]pyrimidine-3-carboxamide], the MIC is not above 1 µM.
Then `CCc1ccc([C@H]2C[C@@H](C(F)(F)F)n3ncc(C(=O)NCc4ccc(C)nc4)c3N2)cc1` (relative stereo) [Example 19, Cis-5-(4-ethylphenyl)-N-((6-methylpyridin-3-yl)methyl)-7-(trifluoromethyl)-4,5,6,7-tetrahydropyrazolo[1,5-a]pyrimidine-3-carboxamide], with 1 to 2 µM (≈ 0.443 to 0.887 µg/mL); and `CCc1ccc([C@H]2C[C@@H](C(C)C)n3ncc(C(=O)NCc4ccc(C)cc4)c3N2)cc1` (relative stereo) [Example 66, Cis-5-(4-ethylphenyl)-7-isopropyl-N-(4-methylbenzyl)-4,5,6,7-tetrahydropyrazolo[1,5-a]pyrimidine-3-carboxamide], with not above 1 µM.
`CCc1ccc([C@H]2C[C@@H](C(C)(C)C)n3ncc(C(=O)NCc4ccc5c(c4)OCO5)c3N2)cc1` (relative stereo) [Example 36, Cis-N-(benzo[d][1,3]-dioxol-5-ylmethyl)-7-(tert-butyl)-5-(4-ethylphenyl)-4,5,6,7-tetrahydropyrazolo[1,5-a]pyrimidine-3-carboxamide] came in with an MIC of 1 to 2 µM (≈ 0.461 to 0.921 µg/mL).
The figure for `CCc1ccc([C@H]2C[C@@H](C(C)(C)C)n3ncc(C(=O)NCc4ccc(OC)cc4)c3N2)cc1` (relative stereo) [Example 35, Cis-7-(tert-butyl)-5-(4-ethylphenyl)-N-(4-methoxybenzyl)-4,5,6,7-tetrahydropyrazolo[1,5-a]pyrimidine-3-carboxamide] is not above 1 µM; for `CCc1ccc([C@H]2C[C@@H](C(F)(F)F)n3ncc(C(=O)NCc4ccc(C(F)(F)F)cc4)c3N2)cc1` (relative stereo) [Example 6, Cis-5-(4-ethylphenyl)-7-(trifluoromethyl)-N-(4-(trifluoromethyl)benzyl)-4,5,6,7-tetrahydropyrazolo[1,5-a]pyrimidine-3-carboxamide] it is not above 1 µM.
For the molecule `CCc1ccc([C@H]2C[C@@H](C(F)(F)F)n3ncc(C(=O)NCc4ccc(OC)cc4OC)c3N2)cc1` (relative stereo) [Example 46, Cis-N-(2,4-dimethoxybenzyl)-5-(4-ethylphenyl)-7-(trifluoromethyl)-4,5,6,7-tetrahydropyrazolo[1,5-a]pyrimidine-3-carboxamide], the minimal inhibitory concentration (MIC) was more than 2 µM.
The figure for `CCc1ccc([C@@H]2C[C@H](C(F)(F)F)n3ncc(C(=O)NCc4ccc(OC)cc4)c3N2)cc1` (single isomer, unassigned) [Example 1b] is more than 2 µM.
With `Cc1ccc([C@H]2C[C@@H](C(F)(F)F)n3ncc(C(=O)NCc4cc(F)cc(F)c4)c3N2)cc1` (relative stereo) [Example 30, Cis-N-(3,5-difluorobenzyl)-5-(p-tolyl)-7-(trifluoromethyl)-4,5,6,7-tetrahydropyrazolo[1,5-a]pyrimidine-3-carboxamide], the MIC was not above 1 µM.
With `CCc1ccc([C@H]2C[C@@H](C(F)(F)F)n3ncc(C(=O)NCc4cc(F)cc(F)c4)c3N2)cc1` (relative stereo) [Example 17, Cis-N-[(3,5-difluorophenyl)methyl]-5-(4-ethylphenyl)-7-(trifluoromethyl)-4,5,6,7-tetrahydropyrazolo[1,5-a]pyrimidine-3-carboxamide], the MIC is not above 1 µM.
As for `CCc1ccc(C2CC(C(F)(F)F)n3ncc(C(=O)NCc4cccs4)c3N2)cc1` (centres unmarked) [Example 40, 5-(4-ethylphenyl)-N-(thiophen-2-ylmethyl)-7-(trifluoromethyl)-4,5,6,7-tetrahydropyrazolo[1,5-a]pyrimidine-3-carboxamide], the minimum inhibitory concentration (MIC) is not above 1 µM.
In the case of `CCc1ccc([C@H]2C[C@@H](C(F)(F)F)n3ncc(C(=O)NCc4ccc(OC)cc4)c3N2)cc1` (relative stereo) [Example 1, Cis-5-(4-ethylphenyl)-N-(4-methoxybenzyl)-7-(trifluoromethyl)-4,5,6,7-tetrahydropyrazolo[1,5-a]pyrimidine-3-carboxamide], the MIC was not above 1 µM.
Then `CCc1ccc([C@@H]2C[C@H](C(F)(F)F)n3ncc(C(=O)NCc4ccco4)c3N2)cc1` (single isomer, unassigned) [Example 7b], with more than 2 µM; and `CCc1ccc([C@H]2C[C@@H](C(F)(F)F)n3ncc(C(=O)NCc4ccc(F)c(C)n4)c3N2)cc1` [Example 105, (5R,7S)-5-(4-ethylphenyl)-N-((5-fluoro-6-methylpyridin-2-yl)methyl)-7-(trifluoromethyl)-4,5,6,7-tetrahydropyrazolo[1,5-a]pyrimidine-3-carboxamide], with not above 1 µM.
`CCc1ccc([C@H]2C[C@@H](C(C)C)n3ncc(C(=O)NCc4ccc(OC)cc4)c3N2)cc1` (relative stereo) [Example 71, Cis-5-(4-ethylphenyl)-7-isopropyl-N-(4-methoxybenzyl)-4,5,6,7-tetrahydropyrazolo[1,5-a]pyrimidine-3-carboxamide] came in with an MIC not above 1 µM.
`CCc1ccc([C@H]2C[C@@H](C(F)(F)F)n3ncc(C(=O)NCc4ccc(Cl)cn4)c3N2)cc1` (relative stereo) [Example 75, Cis-N-((5-chloropyridin-2-yl)methyl)-5-(4-ethylphenyl)-7-(trifluoromethyl)-4,5,6,7-tetrahydropyrazolo[1,5-a]pyrimidine-3-carboxamide] returned an MIC of 1 to 2 µM (≈ 0.464 to 0.928 µg/mL).
The figure for `O=C(NCc1ccco1)c1cnn2c1NC(c1ccc(Br)cc1)CC2C(F)(F)F` (centres unmarked) [57′, 5-(4-bromophenyl)-N-(furan-2-ylmethyl)-7-(trifluoromethyl)-4,5,6,7-tetrahydropyrazolo[1,5-a]pyrimidine-3-carboxamide, reference compound] is more than 2 µM.

These data come from patent US20140038989A1, “TETRAHYDROPYRAZOLO [1,5-A] PYRIMIDINE AS ANTI-TUBERCULOSIS COMPOUNDS” (Glaxo Group Limited, priority 2011, published 2014).
